Results as given in ChEMBL document CHEMBL1201862, “PubChem BioAssay data set” (2004).
Activity calls are given as the source filed them.

Experiments:
[1] = A Cell Based Secondary Assay To Explore Cytotoxicity of Compounds that Sensitize Mycobacterium Tuberculosis to Beta-Lactam Antibiotics.; format: functional
[2] = inhibitors of firefly luciferase expression or activity, dose response, H4 neuroglioma cells, luminescence (AID 1990); format: functional, cell-based
[3] = luciferase reporter signal reduction – luminescence, H4-C neuroglioblastoma cells, dose response (AID 2458); format: functional, cell-based;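 note: H4 neuroglioblastoma cells stably carrying a luciferase reporter gene fusion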
[4] = test system: BJ; assay: cytotoxicity toward BJ-TERT fibroblasts, dose response, cell-based, RAS-independent, luminescence (AID 1933); format: functional; conditions: Homo sapiens
[5] = cells; format: functional, cell-based
[6] = Luminescence Cell-Based Dose Response HTS to Identify Inhibitors of 5'UTR Stem-Loop Driven Prion Protein mRNA Translation in H4 Neuroglioblastoma Cells. [Related pubchem assays: 1827 (Project Summary), 1813 (Primary HTS)]; format: functional
[7] = inhibitors of SNCA 5'UTR-driven reporter translation, confirmation, H4 neuroglioma cells, luminescence (AID 1988); format: functional, cell-based
[8] = test system: BJ; assay: cells; format: functional, cell-based; conditions: Homo sapiens
[9] = target: Luciferin 4-monooxygenase (Photinus pyralis, UniProt P08659); assay: firefly luciferase enzyme inhibitors, dose response, biochemical, luminescence (AID 1891)
Sequence of Luciferin 4-monooxygenase (P08659 whole entry): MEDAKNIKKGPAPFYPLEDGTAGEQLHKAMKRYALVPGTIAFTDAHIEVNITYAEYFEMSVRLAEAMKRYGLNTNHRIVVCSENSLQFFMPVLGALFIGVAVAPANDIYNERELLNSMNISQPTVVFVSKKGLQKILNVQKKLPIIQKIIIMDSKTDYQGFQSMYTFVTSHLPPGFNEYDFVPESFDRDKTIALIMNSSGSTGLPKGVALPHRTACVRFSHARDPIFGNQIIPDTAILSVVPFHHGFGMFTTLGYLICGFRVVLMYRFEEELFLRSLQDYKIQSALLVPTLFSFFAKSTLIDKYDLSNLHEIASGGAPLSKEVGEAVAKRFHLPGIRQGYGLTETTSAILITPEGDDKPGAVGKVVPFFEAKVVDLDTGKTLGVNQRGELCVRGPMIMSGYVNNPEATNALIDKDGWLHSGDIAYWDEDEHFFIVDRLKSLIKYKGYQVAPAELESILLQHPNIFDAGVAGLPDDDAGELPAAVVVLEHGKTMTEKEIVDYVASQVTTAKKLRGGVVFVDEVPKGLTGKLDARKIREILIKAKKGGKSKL

[10] = Luminescence Cell-Based Dose Confirmation HTS to Identify Inhibitors of Platelet Dense Granule Release. [Related pubchem assays: 1663 (Primary HTS), 1678 (Summary of Project)]; format: functional
[11] = test system: BJ; assay: cytotoxicity toward BJ-TERT-LT-ST fibroblasts, dose response, cell-based, RAS-independent, luminescence (AID 1935); format: functional; conditions: Homo sapiens;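 note: BJ fibroblasts immortalized with TERT plus LT and ST oncogenes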
[12] = cytotoxicity toward DRD oncogenic fibroblasts, dose response, cell-based, non-viral oncogenic, luminescence (AID 1934); format: functional; conditions: Homo sapiens
[13] = inhibitors of SNCA 5'UTR-driven translation, confirmation, luminescence, H4 neuroglioblastoma cells, dose confirmation (AID 2454); format: functional, cell-based;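 note: H4 neuroglioblastoma cells carrying an alpha-synuclein 5'UTR luciferase reporter; potency for inhibition of the luciferase signal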
[14] = test system: Jurkat; assay: antigen receptor-induced NF-kB inhibitors, dose response, Jurkat, luciferase reporter, luminescence, B- and T-cell (AID 489004); format: functional, cell-based; conditions: Homo sapiens;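 note: NF-kB luciferase reporter Jurkat cells stimulated with PMA plus ionomycin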
[15] = cytotoxicity in HEK-293T NF-kB-Luc cells, dose response, cytotoxicity control for B/T-cell NF-kB inhibitor project, cell-based, uHTS hits (AID 489019); format: functional;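 note: IC50 reflects cytotoxicity as loss of cell viability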
[16] = Shn3 3'UTR reporter inhibitors, dose response, cell-based, Clone20 osteoblasts, firefly luciferase, cherry-picked (AID 624132); format: functional;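 note: firefly luciferase luminescence from reporter carrying the Shn3 3'UTR in osteoblasts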
[17] = HepG2 cell cytotoxicity, dose response, cytotoxicity control for Shn3 inhibitor project, CellTiter-Glo, cherry-picked (AID 624134); format: functional, cell-based
[18] = target: Paired box protein Pax-8 (Homo sapiens, UniProt Q06710); assay: inhibitors of PAX8-driven TPO luciferase reporter, dose response, RMG-I cells, cherry-pick (AID 687027); format: functional, cell-based;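 note: luciferase reporter driven by Pax8 target thyroperoxidase promoter measured by SteadyGlo luminescence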
Sequence of Paired box protein Pax-8 (Q06710 whole entry): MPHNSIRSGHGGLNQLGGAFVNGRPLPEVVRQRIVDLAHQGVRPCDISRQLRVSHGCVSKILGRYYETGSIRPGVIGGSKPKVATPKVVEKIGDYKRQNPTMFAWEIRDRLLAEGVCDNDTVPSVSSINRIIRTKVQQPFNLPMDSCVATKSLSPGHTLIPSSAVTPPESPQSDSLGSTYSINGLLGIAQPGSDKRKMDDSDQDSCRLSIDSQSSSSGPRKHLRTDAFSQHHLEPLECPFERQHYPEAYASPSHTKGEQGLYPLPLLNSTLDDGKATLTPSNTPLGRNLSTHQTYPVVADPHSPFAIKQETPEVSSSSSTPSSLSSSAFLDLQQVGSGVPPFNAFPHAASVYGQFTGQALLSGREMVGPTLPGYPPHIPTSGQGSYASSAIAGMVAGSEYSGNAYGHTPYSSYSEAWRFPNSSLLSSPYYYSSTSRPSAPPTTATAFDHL

[19] = non-specific cell cytotoxicity, dose response, cytotoxicity control for PAX8 inhibitor project, plate reader, dry powder samples (AID 743021); format: functional, cell-based
[20] = target: T1, Oxysterols receptor LXR-beta (Homo sapiens, UniProt P55055); format: functional, cell-based;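 note: Cell-based luminescence dose-response assay of agonist activity at LXR, run as a confirmatory counterscreen to a daf-12 agonist screen; HEK293 cells with Gal4-LXR fusion and GAL4-driven luciferase reporter; agonist potency from rising luciferase signal of a Gal4-LXR reporter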
T1 sequence (P55055 whole entry): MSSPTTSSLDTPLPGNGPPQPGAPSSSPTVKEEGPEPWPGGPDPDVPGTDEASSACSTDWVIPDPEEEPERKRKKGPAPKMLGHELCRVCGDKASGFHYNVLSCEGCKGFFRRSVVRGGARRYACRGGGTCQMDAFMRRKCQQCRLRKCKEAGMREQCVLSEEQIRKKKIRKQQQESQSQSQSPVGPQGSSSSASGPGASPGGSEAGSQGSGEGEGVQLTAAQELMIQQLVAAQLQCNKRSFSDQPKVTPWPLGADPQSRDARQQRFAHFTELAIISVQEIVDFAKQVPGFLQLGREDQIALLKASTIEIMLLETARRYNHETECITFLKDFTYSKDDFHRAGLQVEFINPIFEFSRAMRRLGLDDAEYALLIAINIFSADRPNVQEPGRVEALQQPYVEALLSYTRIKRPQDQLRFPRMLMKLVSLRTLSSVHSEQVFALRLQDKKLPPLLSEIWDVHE

[21] = cells
[22] = cells; format: functional, cell-based; remark: listed apart in the source
[23] = M. tuberculosis H37Rv growth inhibitors, H37Rv strain (AID 1626); format: functional
[24] = cells; format: functional, cell-based; remark: listed apart in the source
[25] = target: T2, Mannose-6-phosphate isomerase (Homo sapiens, UniProt P34949); assay: inhibitors of human PMI, primary screen, biochemical, fluorescence intensity, coupled assay (AID 1209)
T2 sequence (P34949 whole entry): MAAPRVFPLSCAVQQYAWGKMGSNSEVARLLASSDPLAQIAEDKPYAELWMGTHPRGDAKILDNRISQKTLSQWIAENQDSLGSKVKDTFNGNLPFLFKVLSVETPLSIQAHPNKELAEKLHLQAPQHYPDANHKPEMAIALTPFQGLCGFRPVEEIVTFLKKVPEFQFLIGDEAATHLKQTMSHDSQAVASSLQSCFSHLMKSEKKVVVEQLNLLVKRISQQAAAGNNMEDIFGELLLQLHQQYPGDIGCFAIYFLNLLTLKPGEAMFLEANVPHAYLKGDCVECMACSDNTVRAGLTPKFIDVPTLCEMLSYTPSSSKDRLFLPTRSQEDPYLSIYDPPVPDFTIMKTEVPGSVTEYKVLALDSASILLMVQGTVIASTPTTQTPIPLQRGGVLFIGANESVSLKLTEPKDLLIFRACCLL

[26] = target: Voltage-gated inwardly rectifying potassium channel KCNH2 (Homo sapiens, UniProt Q12809); assay: hERG protection from proarrhythmic block, potency, dose response, cell-based, thallium flux (AID 2121); format: ADME
Sequence of Voltage-gated inwardly rectifying potassium channel KCNH2 (Q12809 whole entry): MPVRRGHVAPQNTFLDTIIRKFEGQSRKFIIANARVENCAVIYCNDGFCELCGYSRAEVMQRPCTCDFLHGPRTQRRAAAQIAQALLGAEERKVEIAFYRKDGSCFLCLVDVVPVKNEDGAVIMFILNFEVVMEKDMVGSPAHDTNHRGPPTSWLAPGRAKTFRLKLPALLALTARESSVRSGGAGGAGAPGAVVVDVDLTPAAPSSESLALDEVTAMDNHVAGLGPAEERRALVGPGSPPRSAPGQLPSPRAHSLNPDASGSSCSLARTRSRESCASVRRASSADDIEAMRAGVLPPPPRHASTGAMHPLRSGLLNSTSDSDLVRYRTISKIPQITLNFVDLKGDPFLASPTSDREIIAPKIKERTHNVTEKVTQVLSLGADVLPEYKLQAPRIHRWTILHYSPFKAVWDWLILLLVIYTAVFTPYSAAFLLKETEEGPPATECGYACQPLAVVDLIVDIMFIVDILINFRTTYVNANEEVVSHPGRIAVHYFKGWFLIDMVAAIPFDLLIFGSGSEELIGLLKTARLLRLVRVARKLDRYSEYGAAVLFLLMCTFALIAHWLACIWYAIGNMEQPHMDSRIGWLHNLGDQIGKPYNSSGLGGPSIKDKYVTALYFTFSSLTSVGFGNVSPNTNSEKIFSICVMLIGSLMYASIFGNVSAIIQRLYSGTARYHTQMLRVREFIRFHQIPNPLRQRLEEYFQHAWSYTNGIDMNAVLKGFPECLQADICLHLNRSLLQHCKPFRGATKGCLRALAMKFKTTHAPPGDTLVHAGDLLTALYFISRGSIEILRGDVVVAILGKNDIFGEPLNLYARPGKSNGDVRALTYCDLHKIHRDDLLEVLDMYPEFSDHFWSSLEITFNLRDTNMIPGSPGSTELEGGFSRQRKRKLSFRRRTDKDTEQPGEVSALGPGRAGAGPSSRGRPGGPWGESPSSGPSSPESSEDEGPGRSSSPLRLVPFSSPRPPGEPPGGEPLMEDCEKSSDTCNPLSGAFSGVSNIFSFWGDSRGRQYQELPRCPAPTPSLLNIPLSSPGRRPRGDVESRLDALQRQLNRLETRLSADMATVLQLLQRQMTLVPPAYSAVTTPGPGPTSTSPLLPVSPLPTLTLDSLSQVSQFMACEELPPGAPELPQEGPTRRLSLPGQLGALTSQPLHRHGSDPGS

[27] = target: T2, Mannose-6-phosphate isomerase; assay: human PMI inhibitors, high substrate, primary screen, biochemical, fluorescence intensity, high mannose 6-phosphate (AID 1220)
[28] = Luminescence Cell-Based Dose Retest to Confirm Inhibitors of Cancer Stem Cells. [Related pubchem assays (depositor defined):AID2717, AID2721]; format: functional; conditions: Homo sapiens
[29] = target: Cytochrome P450 2C19 (Homo sapiens, UniProt P33261); assay: Cytochrome panel assay with activity outcomes. Panel member name: p450-cyp2c19 Compounds with AC50 equal or less than 10 uM are considered active; format: functional; conditions: read-out: AC50
Sequence of Cytochrome P450 2C19 (P33261 whole entry): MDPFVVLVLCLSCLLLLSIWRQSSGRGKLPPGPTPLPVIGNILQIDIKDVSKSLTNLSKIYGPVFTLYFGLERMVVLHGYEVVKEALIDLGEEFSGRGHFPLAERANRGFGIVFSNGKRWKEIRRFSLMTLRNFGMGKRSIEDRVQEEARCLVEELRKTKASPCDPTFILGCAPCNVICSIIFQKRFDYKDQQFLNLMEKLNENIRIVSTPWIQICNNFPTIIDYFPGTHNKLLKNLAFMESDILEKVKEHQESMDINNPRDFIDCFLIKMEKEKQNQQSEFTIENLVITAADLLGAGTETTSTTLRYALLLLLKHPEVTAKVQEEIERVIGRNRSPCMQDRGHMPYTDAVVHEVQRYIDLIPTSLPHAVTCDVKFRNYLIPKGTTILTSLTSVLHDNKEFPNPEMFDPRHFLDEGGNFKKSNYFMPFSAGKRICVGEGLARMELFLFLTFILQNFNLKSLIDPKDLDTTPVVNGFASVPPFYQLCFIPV

[30] = target: T3, Cytochrome P450 1A2 (Homo sapiens, UniProt P05177);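 note: PubChem cytochrome P450 panel assay, CYP1A2 panel member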
T3 sequence (P05177 whole entry): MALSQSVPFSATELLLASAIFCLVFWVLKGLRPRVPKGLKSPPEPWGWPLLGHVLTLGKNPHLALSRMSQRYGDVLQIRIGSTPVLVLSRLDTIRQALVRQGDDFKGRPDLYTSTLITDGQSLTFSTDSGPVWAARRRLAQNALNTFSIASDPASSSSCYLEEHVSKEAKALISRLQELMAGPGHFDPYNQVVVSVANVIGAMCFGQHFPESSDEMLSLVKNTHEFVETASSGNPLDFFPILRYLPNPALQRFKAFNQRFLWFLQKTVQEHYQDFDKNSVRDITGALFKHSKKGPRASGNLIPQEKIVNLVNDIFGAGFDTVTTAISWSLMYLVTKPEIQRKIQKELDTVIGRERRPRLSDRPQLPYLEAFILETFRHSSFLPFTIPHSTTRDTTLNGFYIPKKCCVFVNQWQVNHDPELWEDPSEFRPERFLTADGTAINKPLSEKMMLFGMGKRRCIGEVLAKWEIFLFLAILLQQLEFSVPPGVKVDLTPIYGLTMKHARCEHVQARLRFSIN

[31] = target: Cytochrome P450 2C9 (Homo sapiens, UniProt P11712)
Sequence of Cytochrome P450 2C9 (P11712 whole entry): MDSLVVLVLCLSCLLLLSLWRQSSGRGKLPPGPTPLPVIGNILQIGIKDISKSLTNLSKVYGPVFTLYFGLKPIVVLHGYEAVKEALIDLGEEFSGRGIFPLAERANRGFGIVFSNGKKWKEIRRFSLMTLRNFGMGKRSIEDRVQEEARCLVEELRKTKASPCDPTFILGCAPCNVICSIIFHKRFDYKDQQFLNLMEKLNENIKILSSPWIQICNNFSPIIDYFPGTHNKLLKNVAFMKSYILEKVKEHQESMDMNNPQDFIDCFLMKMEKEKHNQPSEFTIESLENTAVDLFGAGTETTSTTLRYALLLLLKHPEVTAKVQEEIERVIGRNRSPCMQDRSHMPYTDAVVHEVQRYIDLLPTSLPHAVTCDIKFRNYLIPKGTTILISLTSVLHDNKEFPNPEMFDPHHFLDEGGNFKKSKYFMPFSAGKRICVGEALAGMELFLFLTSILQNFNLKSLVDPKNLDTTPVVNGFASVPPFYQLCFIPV

[32] = target: T4, Heat shock factor protein 1 (Mus musculus, UniProt P38532); assay: inhibition of MG132-induced HSE-luciferase signal, confirmation, cell-based, NIH3T3, luminescence, dose retest (AID 2382); format: functional;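 note: NIH3T3 fibroblasts with HSF1-driven luciferase reporter stressed by proteasome inhibitor MG132; luminescence from HSF1-driven luciferase expression after 8 hours of MG132 stress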
T4 sequence (P38532 whole entry): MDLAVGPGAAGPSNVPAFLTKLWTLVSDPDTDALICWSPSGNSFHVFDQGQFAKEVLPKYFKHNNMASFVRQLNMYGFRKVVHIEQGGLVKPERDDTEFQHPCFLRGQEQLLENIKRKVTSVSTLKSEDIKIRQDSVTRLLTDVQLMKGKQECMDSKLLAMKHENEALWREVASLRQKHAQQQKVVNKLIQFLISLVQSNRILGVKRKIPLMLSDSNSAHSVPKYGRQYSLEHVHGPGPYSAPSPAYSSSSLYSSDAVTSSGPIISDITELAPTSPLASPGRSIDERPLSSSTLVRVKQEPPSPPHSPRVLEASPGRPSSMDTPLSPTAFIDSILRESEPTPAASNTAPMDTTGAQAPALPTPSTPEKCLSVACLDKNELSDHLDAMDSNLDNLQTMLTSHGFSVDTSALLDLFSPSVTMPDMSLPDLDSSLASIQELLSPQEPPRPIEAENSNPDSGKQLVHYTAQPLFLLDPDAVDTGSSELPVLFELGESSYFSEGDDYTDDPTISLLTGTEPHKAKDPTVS

[33] = cytotoxicity in HEK-293T cells, dose response, cytotoxicity control for TCR NF-kB inhibitor project, luminescence, T-cell screen hits (AID 489026); format: functional, cell-based;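 note: cells exposed to compound about 14 hours before the viability readout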
[34] = HIV-1 Env-mediated cell fusion inhibitors, dose response, CCR5-tropic Env (AID 2279); format: functional
[35] = target: T5, Microphthalmia-associated transcription factor (Homo sapiens, UniProt O75030); assay: TRPM1 promoter luciferase signal decrease, dose response, MITF inhibitor project, cell-based, SK-MEL-5, cherry-picked, set 3 (AID 493073); format: functional
T5 sequence (O75030 whole entry): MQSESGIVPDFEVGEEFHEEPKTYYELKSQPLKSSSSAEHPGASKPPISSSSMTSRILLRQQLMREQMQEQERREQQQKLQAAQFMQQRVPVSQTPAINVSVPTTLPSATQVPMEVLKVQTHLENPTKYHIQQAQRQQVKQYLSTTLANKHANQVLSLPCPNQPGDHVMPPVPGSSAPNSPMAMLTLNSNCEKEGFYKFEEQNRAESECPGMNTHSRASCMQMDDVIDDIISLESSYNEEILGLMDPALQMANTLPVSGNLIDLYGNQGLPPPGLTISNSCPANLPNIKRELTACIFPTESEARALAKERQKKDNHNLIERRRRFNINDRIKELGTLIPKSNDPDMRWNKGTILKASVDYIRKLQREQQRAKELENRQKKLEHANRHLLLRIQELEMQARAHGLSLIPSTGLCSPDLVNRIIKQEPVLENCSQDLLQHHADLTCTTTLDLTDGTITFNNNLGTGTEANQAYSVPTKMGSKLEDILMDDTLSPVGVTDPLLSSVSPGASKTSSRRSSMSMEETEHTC

With `Cc1cccc(OCc2n[nH]c(-c3ccccn3)n2)c1` the CC50 [1] was 28 µM (active).
For `O=C(Nc1ccc([N+](=O)[O-])cc1)C(=O)Nc1cccc(C(=O)O)c1`, the EC50 [2] was < 0.1 µM (active), the EC50 [3] was 0.126 µM (active) and the EC50 [4] was 16.2 µM (active). The EC50 [5] was > 12 µM (inconclusive), the EC50 [6] was < 0.1 µM (active) and the EC50 [7] was < 0.1 µM (active). For the same molecule, the EC50 [8] was 7.23 µM (active), the EC50 [9] was 0.984 µM (active) and the EC50 [10] was 2.09 µM (active). For the same molecule, the EC50 [11] was > 75 µM (inconclusive), the EC50 [12] was 8.07 µM (active) and the EC50 [13] was 0.115 µM (active). For the same molecule, the IC50 [14] was 1.57 µM (active), the IC50 [15] was > 80 µM (inactive) and the AC50 [16] was 4.21 µM (active). The AC50 [17] was 56.2 µM (active), the AC50 [18] was 5 µM (active) and the AC50 [19] was 5.98 µM (active). The EC50 [20] was > 67.5 µM (inactive) and the EC50 [21] was > 67.5 µM (inactive).
For `CCOc1ccc(/C=C/C(=O)c2ccccc2)cc1OC`, the EC50 [22] was > 350 µM (not active), the IC50 [23] was > 100 µM (active) and the EC50 [24] was 10.2 µM (active).
For `O=C(NC(=S)Nc1nc2c(s1)CSc1ccccc1-2)c1ccccc1`, the IC50 [25] was > 50 µM (not active), the EC50 [26] was 5.11 µM (active) and the IC50 [27] was > 50 µM (not active).
In the case of `Cc1cc(C)cc(N2C(=O)CC(Sc3nnc[nH]3)C2=O)c1` (stereo unspecified), the IC50 [25] is reported as > 50 µM (not active).
With `CC(C)(C)c1ccc(OCC(=O)N/N=C/c2cc(Br)ccc2OC(=O)c2ccco2)cc1` the CC50 [1] was 15 µM (active), the AC50 [28] was 2.29 µM (active) and the AC50 [29] was 1.26 µM (inconclusive). The AC50 [30] was 5.01 µM (inconclusive) and the AC50 [31] was “inconclusive”.
With `Cc1nn(-c2ccccc2Cl)c(Cl)c1/C=N/Nc1nc2ccccc2s1` the EC50 [2] was < 0.1 µM (active), the EC50 [3] was 0.086 µM (active) and the EC50 [5] was 0.036 µM (active). The EC50 [6] was < 0.1 µM (active), the EC50 [32] was < 0.16 µM (active) and the EC50 [7] was < 0.1 µM (active). For the same molecule, the EC50 [13] was 0.1 µM (active) and the IC50 [33] was > 80 µM (inactive).
For `COc1cc(/C=N/NS(=O)(=O)c2ccc3ccccc3c2)ccc1OCc1ccc(C(=O)O)cc1`, the EC50 [2] was 9.11 µM (inconclusive), the EC50 [6] was 10.5 µM (active) and the EC50 [7] was 7.05 µM (active). The IC50 [34] was 23.6 µM (active) and the AC50 [35] was 4.78 µM (active).
